Assay results from patent publication US20100292186A1, “Pharmaceutical Composition for Treatment or Prevention of Liver Cancer” (National University Corporation Nagoya University, priority 2006, published 2010).

Experiments:
[1] = cited from earlier work
[2] = test system: human hepatocellular cancer cell line (Hep-3B, Hep-G2, Huh-7 and Alexander); experiment: MTT assay, growth inhibition of hepatocellular cancer cell lines; format: cell-based
Method: Four species of human hepatocellular cancer cell line (Hep-3B. Hep-G2, Huh-7 and Alexander) were cultured under humidified atmosphere of 95% air and 5% carbon dioxide, in a Dulbecco Modified Eagle culture medium (DMEM: SIGMA CHEMICAL Co., St. Louis USA) supplemented with 10% fetal bovine serum (FBS), 100 U/ml penicillin G sulphate and 100 μg/ml streptomycin sulphate.
For lecithin (other name: phosphatidylcholine (hereinafter, referred to as simply “PC”), soybean lecithin with a purity of approximately 96.5% was used, and menatetrenone and Kaytwo N (Kaytwo N: registered trade mark; manufactured by Eisai Co. Ltd.) were provided by Eisai Co. Ltd. For the study, cells (Hep-G2: 1×10^4; others: 1×10^3) in a 96-well microtiter plate were cultured one day prior to beginning the experiments. In the MTT assay method, cells in 96-well microtiter were cultured several days (2 to 4 days) in the presence of PC (1×10^−8 to 1×10^−4M) and menatetrenone (1×10^−7 to 1×10^−4 M) or Kaytwo N (registered trade mark; manufactured by Eisai Co. Ltd.) (regarding menatetrenone: […] to 1×10^−4M). […] The survival rate was analyzed by the MTT assay method using the Tetra Color One Kit. […]
Significant differences were evaluated by the Mann-Whitney U test according to StatView 5.0 (Abacus Concepts, Berkley, Calif.). […]

[3] = test system: human hepatocellular cancer cell lines (Hep-3B, Hep-G2, Huh-7 and the like); conditions: literature; cited from earlier work
hepatocellular cancer = conditions: administration after treatment of hepatocellular cancer; cited from earlier work

CC(C)=CCC/C(C)=C/CC/C(C)=C/CC/C(C)=C/CC1=C(C)C(=O)c2ccccc2C1=O [menatetrenone, 2-methyl-3-tetraprenyl-1,4-naphthoquinone]
solubility in water [1]: almost insoluble in water | survival rate ([2]; MTT assay, PC 1×10^−8 to 1×10^−4 M, menatetrenone 1×10^−7 to 1×10^−4 M, culture 2 to 4 days, FIGS. 1A-1C): survival rate decreased in the presence menatetrenone depending on the quantity added | multiplication of human hepatocellular cancer cell lines ([2]; each substance alone): demonstrated an inhibitory effect | growth of human hepatocellular cancer cell lines [3]: inhibitory effect | occurrence of PVI (portal venous invasion) (hepatocellular cancer): could be suppressed | prognosis / recurrence of hepatocellular cancer (hepatocellular cancer): prognosis could be improved by suppressing the recurrence of hepatocellular cancer
